The values below come from patent US12358879B2, “Heterocyclic compound” (Takeda Pharmaceutical Company Limited, priority 2019, dated 2025).

The subject of this assay is Skin fibroblasts derived from FA patients (GM4078). Kind of assay: RSL3-induced cell death inhibitory activity in skin fibroblasts derived from FA patients (ATP, CellTiter-Glo). The assay is classed as cell-based, human. To be noted: 3 μmol/l RSL3, 24 hours. On the procedure: The effects of the compounds according to the present disclosure were evaluated according to the literature (M. G. Cotticelli et al, J Pharmacol Exp Ther 2019, 369, 47-54.).
Skin fibroblasts derived from FA patients (Coriell Institute for Medical Research, GM4078) were cultured in a culture medium consisting of DMEM (Thermo Fisher Scientific, 11995-065), 10% fetal bovine serum (Thermo Fisher Scientific, 26140-087), 1% GlutaMAX supplement (Thermo Fisher Scientific, 35050-061) and 1% Penicillin-Streptomycin solution (FUJIFILM Wako Pure Chemical Corporation, 168-23191).
For assay, the fibroblasts in the above culture medium were seeded in a 384-well plate at 1,500 cells per well, and the test compound and 3 μmol/l (final concentration) RSL3 were added to the plate the day after seeding. The concentration of the test compound added to the assay plate was 0.01, 0.1, 1 and 10 μmol/l as 4 points, and DMSO was added as a negative control for the test compound and RSL3. Twenty-four hours after the addition of RSL3/the test compound, CellTiter-Glo Luminescent Cell Viability Assay solution (Promega, G7573) was added to the plate to lyse the cells, and ATP was measured as an index of cell viability by detecting chemiluminescence with a plate reader.
RSL3-induced cell death inhibitory activity of the test compound=((X−C)/(T−C))×100 • X: ATP in the RSL3 addition/the test compound addition group, • C: ATP in the RSL3 addition/the test compound non-addition group, • T: ATP in the RSL3 non-addition/the test compound non-addition group

`COCc1nn(C)cc1Nc1nn(C2CCC2)c2ccc(C(C)(C)O)cc12` [Example 88, 2-(1-cyclobutyl-3-{[3-(methoxymethyl)-1-methyl-1H-pyrazol-4-yl]amino}-1H-indazol-5-yl)propan-2-ol]: the “RSL3-induced cell death inhibitory activity (%) at each compound concentration (μmol/l)” value is, setting by setting: (compound 0.01 μmol/l) 13.6%; (compound 0.1 μmol/l) 61.2%; (compound 1 μmol/l) 73.0%; (compound 10 μmol/l) 72.7%.

Regarding `COc1nn(C)cc1Nc1nn(C2CCC2)c2cc(C(C)(C)O)ccc12` [Example 68, 2-{1-cyclobutyl-3-[(3-methoxy-1-methyl-1H-pyrazol-4-yl)amino]-1H-indazol-6-yl}propan-2-ol], the “RSL3-induced cell death inhibitory activity (%) at each compound concentration (μmol/l)” value was 49.5% (compound 0.01 μmol/l), 66.1% (compound 0.1 μmol/l), 95.5% (compound 1 μmol/l) and 93.7% (compound 10 μmol/l).

As for `Cn1nc(Nc2cnn3c2CCCC3)c2ccc(C(C)(C)O)cc21` [Example 19, 2-{1-methyl-3-[(4,5,6,7-tetrahydropyrazolo[1,5-a]pyridin-3-yl)amino]-1H-indazol-6-yl}propan-2-ol], the “RSL3-induced cell death inhibitory activity (%) at each compound concentration (μmol/l)” value is, setting by setting: (compound 0.01 μmol/l) 11.1%; (compound 0.1 μmol/l) 32.1%; (compound 1 μmol/l) 58.9%; (compound 10 μmol/l) 78.9%.

Turning to `COc1nn(C)cc1Nc1nn(C2CCC2)c2ccc(C(C)(C)O)cc12` [Example 70, 2-{1-cyclobutyl-3-[(3-methoxy-1-methyl-1H-pyrazol-4-yl)amino]-1H-indazol-5-yl}propan-2-ol], the “RSL3-induced cell death inhibitory activity (%) at each compound concentration (μmol/l)” value (compound 0.01 μmol/l) is 12.1%, the “RSL3-induced cell death inhibitory activity (%) at each compound concentration (μmol/l)” value (compound 0.1 μmol/l) is 86.1%, the “RSL3-induced cell death inhibitory activity (%) at each compound concentration (μmol/l)” value (compound 1 μmol/l) is given as 89.2% and the “RSL3-induced cell death inhibitory activity (%) at each compound concentration (μmol/l)” value (compound 10 μmol/l) was found to be 82.2%.

Take `COc1nn(C)cc1Nc1nn(C)c2ccc(C(C)(C)O)cc12` [Example 41, 2-{3-[(3-methoxy-1-methyl-1H-pyrazol-4-yl)amino]-1-methyl-1H-indazol-5-yl}propan-2-ol]: the “RSL3-induced cell death inhibitory activity (%) at each compound concentration (μmol/l)” value runs as follows: (compound 0.01 μmol/l) 21.3%; (compound 0.1 μmol/l) 40.8%; (compound 1 μmol/l) 58.1%; (compound 10 μmol/l) 71.7%.

In the case of `COCc1nn(C)cc1Nc1nn(C(C)C)c2cc(C(C)(C)O)ccc12` [Example 85, 2-[3-{[3-(methoxymethyl)-1-methyl-1H-pyrazol-4-yl]amino}-1-(propan-2-yl)-1H-indazol-6-yl]propan-2-ol], the “RSL3-induced cell death inhibitory activity (%) at each compound concentration (μmol/l)” value (compound 0.01 μmol/l) amounted to 11.4%, the “RSL3-induced cell death inhibitory activity (%) at each compound concentration (μmol/l)” value (compound 0.1 μmol/l) was 43.2%, the “RSL3-induced cell death inhibitory activity (%) at each compound concentration (μmol/l)” value (compound 1 μmol/l) turned out to be 68.4% and the “RSL3-induced cell death inhibitory activity (%) at each compound concentration (μmol/l)” value (compound 10 μmol/l) worked out at 72.6%.

As for `COc1nn(C)cc1Nc1nn(CC2CC2)c2cc(C(C)(C)O)ccc12` [Example 49, 2-{1-(cyclopropylmethyl)-3-[(3-methoxy-1-methyl-1H-pyrazol-4-yl)amino]-1H-indazol-6-yl}propan-2-ol], the “RSL3-induced cell death inhibitory activity (%) at each compound concentration (μmol/l)” value (compound 0.01 μmol/l) amounted to 37.8%, the “RSL3-induced cell death inhibitory activity (%) at each compound concentration (μmol/l)” value (compound 0.1 μmol/l) stood at 64.9%, the “RSL3-induced cell death inhibitory activity (%) at each compound concentration (μmol/l)” value (compound 1 μmol/l) was 96.5% and the “RSL3-induced cell death inhibitory activity (%) at each compound concentration (μmol/l)” value (compound 10 μmol/l) was 93.0%.

`Cn1cc(Nc2nn(C)c3cc(C(C)(C)O)ccc23)c(C(F)(F)F)n1` [Example 5, 2-(1-methyl-3-{[1-methyl-3-(trifluoromethyl)-1H-pyrazol-4-yl]amino}-1H-indazol-6-yl)propan-2-ol]: the “RSL3-induced cell death inhibitory activity (%) at each compound concentration (μmol/l)” value is on record as 27.8% (compound 0.01 μmol/l), 53.9% (compound 0.1 μmol/l), 84.5% (compound 1 μmol/l) and 82.7% (compound 10 μmol/l).

For the compound `COc1nn(C)cc1Nc1nn(CC2CC2(F)F)c2cc(C(C)(C)O)ccc12` (stereo not shown) [Example 77, 2-{1-[(2,2-difluorocyclopropyl)methyl]-3-[(3-methoxy-1-methyl-1H-pyrazol-4-yl)amino]-1H-indazol-6-yl}propan-2-ol], the “RSL3-induced cell death inhibitory activity (%) at each compound concentration (μmol/l)” value (compound 0.01 μmol/l) is given as 17.7%, the “RSL3-induced cell death inhibitory activity (%) at each compound concentration (μmol/l)” value (compound 0.1 μmol/l) came to 46.4%, the “RSL3-induced cell death inhibitory activity (%) at each compound concentration (μmol/l)” value (compound 1 μmol/l) is recorded as 76.2% and the “RSL3-induced cell death inhibitory activity (%) at each compound concentration (μmol/l)” value (compound 10 μmol/l) is reported as 77.1%.

As to `COCc1nn(C)cc1Nc1nn(C2CCC2)c2cc(C(C)(C)O)ccc12` [Example 82, 2-(1-cyclobutyl-3-{[3-(methoxymethyl)-1-methyl-1H-pyrazol-4-yl]amino}-1H-indazol-6-yl)propan-2-ol], the “RSL3-induced cell death inhibitory activity (%) at each compound concentration (μmol/l)” value by setting is: (compound 0.01 μmol/l) 1.9%; (compound 0.1 μmol/l) 41.6%; (compound 1 μmol/l) 64.0%; (compound 10 μmol/l) 73.8%.

Regarding `COc1c(Nc2nn(C)c3cc(C(C)(C)O)ccc23)cnn1CC(C)C` [Example 40, 2-(3-{[5-methoxy-1-(2-methylpropyl)-1H-pyrazol-4-yl]amino}-1-methyl-1H-indazol-6-yl)propan-2-ol], the “RSL3-induced cell death inhibitory activity (%) at each compound concentration (μmol/l)” value (compound 0.01 μmol/l) is 40.7%, the “RSL3-induced cell death inhibitory activity (%) at each compound concentration (μmol/l)” value (compound 0.1 μmol/l) was 63.0%, the “RSL3-induced cell death inhibitory activity (%) at each compound concentration (μmol/l)” value (compound 1 μmol/l) was 98.1% and the “RSL3-induced cell death inhibitory activity (%) at each compound concentration (μmol/l)” value (compound 10 μmol/l) is given as 94.9%.

In the case of `CCn1nc(Nc2cn(C)nc2OC)c2ccc(C(C)(C)O)cc21` [Example 36, 2-{1-ethyl-3-[(3-methoxy-1-methyl-1H-pyrazol-4-yl)amino]-1H-indazol-6-yl}propan-2-ol], the “RSL3-induced cell death inhibitory activity (%) at each compound concentration (μmol/l)” value (compound 0.01 μmol/l) amounted to 14.0%, the “RSL3-induced cell death inhibitory activity (%) at each compound concentration (μmol/l)” value (compound 0.1 μmol/l) is recorded as 28.5%, the “RSL3-induced cell death inhibitory activity (%) at each compound concentration (μmol/l)” value (compound 1 μmol/l) turned out to be 55.8% and the “RSL3-induced cell death inhibitory activity (%) at each compound concentration (μmol/l)” value (compound 10 μmol/l) is given as 86.0%.

Consider `COCc1nn(C)cc1Nc1nn(CC2CC2)c2cc(C(C)(C)O)ccc12` [Example 84, 2-[1-(cyclopropylmethyl)-3-{[3-(methoxymethyl)-1-methyl-1H-pyrazol-4-yl]amino}-1H-indazol-6-yl]propan-2-ol], for which the “RSL3-induced cell death inhibitory activity (%) at each compound concentration (μmol/l)” value by setting is: (compound 0.01 μmol/l) 12.4%; (compound 0.1 μmol/l) 47.5%; (compound 1 μmol/l) 75.7%; (compound 10 μmol/l) 73.8%.
